Laboratory results as given in patent US8877946B2, “Benzylidene-indolinone compounds and their medical use” (National University of Singapore, priority 2011, dated 2014).

system: HuH7 cells; assay: MTT antiproliferative (growth inhibition) assay on HuH7 cells; assay type: cell-based, human; settings: Homo sapiens, Huh-7, MTT, 72 h incubation, mean and SD of 3 or more independent determinations (Tables 1-8), read-out: IC 50
Description: MTT was purchased from DUCHEFA Biochemie ([…]). Sunitinib, and sodium dodecyl sulfate, bovine serum albuminwere obtained from Sigma Aldrich (Singapore). Sorafenib was purchase from Ontario Chem. Fetal bovine serum (FBS) was obtained from Invitrogen. Human hepatocellular carcinoma cells (HuH-7 and Hep G2), and human diploid fibroblast strain (IMR 90). HuH7 was obtained as gifts from Dr Ho Han Kiat, Department of Pharmacy, NUS. IMR90 and Hep G2 were purchased from American Type Culture Collection (ATCC). HuH-7 cells were cultured in DMEM (Dulbecco's Modified Eagle Medium, high glucose) with 10% v/v fetal bovine serum (FBS), 100 mg/L penicillin G and 100 mg/L streptomycin. IMR 90 cell were cultured in EMEM (Eagle's Minimum Essential Medium), with 10% v/v FBS and 100 mg/L penicillin G and 100 mg/L streptomycin. The cells were sub-cultured when HuH7 or Hep G2 reached a density of 70-80×10^5 cell/T75 flask, and IMR 90 reached 20×10^5 cell/T75 flask. Cells were used within 2-10 passages for viability experiments.
The anti-proliferative activity of the test compounds were determined by the MTT assay. An aliquot (200 μL, 3×10^4 cells/mL for HuH7, 3.75×10^4 cells/mL for Hep G2, and 2×10^4 cells/mL for IMR 90) of medium was added to each well of the microtitre plate. […] The existing medium was removed from each well and replaced by fresh medium (200 μL) containing a known concentration of test compound. The final concentration of DMSO in each well was maintained at 0.5% v/v. (1% v/v was also utilized if the compounds were not soluble) The test compounds were incubated with the cells for another 72 h at 37 deg C., 5% CO2. The medium was then removed from the well and replaced with FBS free medium (200 μL) and MTT (50 μL of 2 mg/mL solution in phosphate buffer saline, pH 7.4). The phosphate buffer saline comprises 10 mM of potassium phosphate and 137 mM sodium chloride. After incubation (3 h) at 37 deg C., 5% CO2, the supernatant was removed and a solution of 200 μL DMSO and 25 μL Sorenson buffer (0.1 M glycine, 0.1 M sodium chloride, adjusted to pH 10.5 with 0.1 M sodium hydroxide) was added to dissolve the formazan crystals in each well. Vehicle control were cells grown in 1% v/v DMSO/Medium for 72 h, 37 deg C., 5% CO2 while blank controls were wells that contained only 200 μL DMSO and 25 μL Sorenson buffer. Absorbances were measured at 570 nm on a microplate reader (Tecan, Infinite 200). The viability of cells at a given concentration of test compound was determined from the expression:
[formula] where abs_compound=absorbance of wells containing cells and test compound, abs_vehicle (Not the same as above. Change to abs_vehicle)=absorbance of vehicle control and abs_blank=absorbance of blank control.
Each concentration of test compound was evaluated at least 3 times on separate occasions, and two different stock solution were used. The IC50 value (concentration that inhibited 50% of cell growth) was determined from the sigmoidal curve obtained by plotting percentage viability versus logarithmic concentration of test compound using GraphPad Prism 5 (San Diego, USA).

Which IC50 does the source give for O=C1Nc2ccc(F)c(F)c2C1=Cc1ccccc1C(F)(F)F (mixture of isomers) [Compound 6-5, (E/Z)-4,5-Difluoro-3-(2-trifluoromethyl-benzylidene)-1,3-dihydro-indol-2-one] here?
The IC50 was > 30 µM.

CS(=O)(=O)c1cccc(C=C2C(=O)Nc3ccc(F)c(F)c32)c1 (mixture of isomers) [Compound 6-9, (E/Z)-4,5-Difluoro-3-(3-methanesulfonylbenzylidene)-1,3-dihydro-indol-2-one] was tested. Which IC50 did it give?
Its IC50 is 13.9 ± 2.03 µM.

For O=C1Nc2cc(Cl)ccc2/C1=C\c1ccccc1 [Compound 1-1, (E)-3-Benzylidene-6-chloro-1,3-dihydro-indol-2-one], which IC50 is on record?
Its IC50 is 17.5 ± 3.54 µM.

O=C1Nc2cc(Cl)ccc2/C1=C\c1cccc(F)c1 [Compound 1-3, (E)-6-Chloro-3-(3-fluoro-benzylidene)-1,3-dihydro-indol-2-one] was tested. Which IC50 did it give?
Its IC50 is 10 ± 0.87 µM.

For O=C1Nc2cc(Cl)ccc2/C1=C\c1ccc(F)cc1 [Compound 1-4, (E)-6-Chloro-3-(4-fluoro-benzylidene)-1,3-dihydro-indol-2-one], which IC50 is on record?
The IC50 was 12.9 ± 0.95 µM.

How did the IC50 turn out when Cc1cccc(/C=C2/C(=O)Nc3cc(Cl)ccc32)c1 [Compound 1-5, (E)-6-Chloro-3-(3-methyl-benzylidene)-1,3-dihydro-indol-2-one] was run?
The IC50 was 11 ± 0.28 µM.

With COc1ccccc1/C=C1/C(=O)Nc2cc(Cl)ccc21 [Compound 1-6, (E)-6-Chloro-3-(2-methoxy-benzylidene)-1,3-dihydro-indol-2-one] as the compound, how does the IC50 read?
Its IC50 is > 30 µM.

Which IC50 does the source give for COc1cccc(/C=C2/C(=O)Nc3cc(Cl)ccc32)c1 [Compound 1-7, (E)-6-Chloro-3-(3-methoxy-benzylidene)-1,3-dihydro-indol-2-one] here?
Its IC50 is 12.2 ± 0.64 µM.

How did the IC50 turn out when COc1ccc(/C=C2/C(=O)Nc3cc(Cl)ccc32)cc1 [Compound 1-8, (E)-6-Chloro-3-(4-methoxy-benzylidene)-1,3-dihydro-indol-2-one] was run?
The IC50 was > 30 µM.

O=C1Nc2cc(Cl)ccc2/C1=C\c1ccccc1C(F)(F)F [Compound 1-9, (E)-6-Chloro-3-(2-trifluoromethyl-benzylidene)-1,3-dihydro-indol-2-one] was tested. Which IC50 did it give?
Its IC50 is 24.1 ± 5.29 µM.

O=C1Nc2cc(Cl)ccc2/C1=C\c1ccc(C(F)(F)F)cc1 [Compound 1-11, (E)-6-Chloro-3-(4-trifluoromethyl-benzylidene)-1,3-dihydro-indol-2-one] was tested. Which IC50 did it give?
Its IC50 is 11 ± 1.78 µM.

With O=C1Nc2cc(Cl)ccc2C1=Cc1ccc(F)c(F)c1 [Compound 1-12, (E)-6-Chloro-3-(3,4-difluoro-benzylidene) 1,3-dihydro-indolin-2-one] as the compound, how does the IC50 read?
Its IC50 is 16.7 ± 3.4 µM.

O=C1Nc2cc(Cl)ccc2/C1=C\c1cccc(OC(F)(F)F)c1 [Compound 1-14, (E)-6-Chloro-3-(3-trifluoromethoxyl-benzylidene)-1,3-dihydro-indol-2-one] was tested. Which IC50 did it give?
The IC50 was 5.06 ± 0.74 µM.

For O=C1Nc2cc(Cl)ccc2C1=Cc1ccc(OC(F)(F)F)cc1 [Compound 1-15, (E)-6-Chloro-3-(4-trifluoromethoxyl-benzylidene)-1,3-dihydro-indol-20-one], which IC50 is on record?
Its IC50 is 10.1 ± 1.73 µM.

With CS(=O)(=O)c1cccc(/C=C2/C(=O)Nc3cc(Cl)ccc32)c1 [Compound 1-16, (E)-6-Chloro-3-(3-methanesulfonyl-benzylidene)-1,3-dihydro-indol-2-one] as the compound, how does the IC50 read?
Its IC50 is 10.8 ± 3.72 µM.

How did the IC50 turn out when NS(=O)(=O)c1cccc(/C=C2/C(=O)Nc3cc(Cl)ccc32)c1 [Compound 1-17, (E) 3-(6-Chloro-2-oxo-1,2-dihydro-indol-3-ylidenemethyl)-benzene-sulfonamide] was run?
The IC50 was 3.41 ± 0.38 µM.

How did the IC50 turn out when N#Cc1cccc(/C=C2/C(=O)Nc3cc(Cl)ccc32)c1 [Compound 1-19, (E) 3-(6-Chloro-2-oxo-1,2-dihydro-indol-3-ylidenemethyl)-benzonitrile] was run?
The IC50 was 7.36 ± 0.3 µM.

For CN(C)S(=O)(=O)c1cccc(/C=C2/C(=O)Nc3cc(Cl)ccc32)c1 [Compound 1-20, (E)-3-(6-Chloro-2-oxo-1,2-dihydro-indol-3-ylidenemethyl)-N,N-dimethyl-benzenesulfonamide], which IC50 is on record?
Its IC50 is 4.87 ± 0.36 µM.

Which IC50 does the source give for O=C1Nc2ccc(Cl)cc2/C1=C\c1ccccc1 [Compound 2-1, (E)-3-Benzylidene-5-chloro-1,3-dihydro-indol-2-one] here?
The IC50 was 21.3 ± 2.22 µM.

With O=C1Nc2ccc(Cl)cc2/C1=C\c1ccccc1F [Compound 2-2, (E)-5-Chloro-3-(2-fluoro-benzylidene)-1,3-dihydro-indol-2-one] as the compound, how does the IC50 read?
Its IC50 is > 30 µM.

O=C1Nc2ccc(Cl)cc2/C1=C\c1cccc(F)c1 [Compound 2-3, (E)-5-Chloro-3-(3-fluoro-benzylidene)-1,3-dihydro-indol-2-one] was tested. Which IC50 did it give?
Its IC50 is 15.1 ± 2.91 µM.

How did the IC50 turn out when O=C1Nc2ccc(Cl)cc2/C1=C\c1ccc(F)cc1 [Compound 2-4, (E)-5-Chloro-3-(4-fluoro-benzylidene)-1,3-dihydro-indol-2-one] was run?
The IC50 was 12.7 ± 2.82 µM.

With COc1cccc(C=C2C(=O)Nc3ccc(Cl)cc32)c1 [Compound 2-5, (E)-5-Chloro-3-(3-methoxybenzylidene)-dihydro-indol-2-one] as the compound, how does the IC50 read?
The IC50 was > 30 µM.

With O=C1Nc2ccc(Cl)cc2/C1=C\c1ccccc1C(F)(F)F [Compound 2-6, (E)-5-Chloro-3-(2-trifluoromethylbenzylidene)-1,3-dihydro-indol-2-one] as the compound, how does the IC50 read?
Its IC50 is > 30 µM.

How did the IC50 turn out when O=C1Nc2ccc(Cl)cc2/C1=C\c1ccc(C(F)(F)F)cc1 [Compound 2-8, (E)-5-Chloro-3-(4-trifluoromethylbenzylidene)-1,3-dihydro-indol-2-one] was run?
The IC50 was 7.92 ± 1.45 µM.

Which IC50 does the source give for O=C1Nc2ccc(Cl)cc2/C1=C\c1ccc(F)c(F)c1 [Compound 2-9, (E)-5-Chloro-3-(3,4-difluoro-benzylidene)-1,3-dihydro-indol-2-one] here?
The IC50 was 11.4 ± 1.45 µM.

Which IC50 does the source give for O=C1Nc2ccc(Cl)cc2/C1=C\c1cccc(OC(F)(F)F)c1 [Compound 2-10, (E)-5-Chloro-3-(3-trifluoromethoxyl-benzylidene)-1,3-dihydro-indol-2-one] here?
The IC50 was 3.83 ± 0.25 µM.

With CS(=O)(=O)c1cccc(/C=C2/C(=O)Nc3ccc(Cl)cc32)c1 [Compound 2-11, (E)-5-Chloro-3-(3-methanesulfonyl-benzylidene)-1,3-dihydro-indol-2-one] as the compound, how does the IC50 read?
The IC50 was 6.53 ± 0.51 µM.

With NS(=O)(=O)c1cccc(C=C2C(=O)Nc3ccc(Cl)cc32)c1 [Compound 2-12, E/Z 3-(5-Chloro-2-oxo-1,2-dihydro-indol-3-ylidenemethyl)-benzenesulfonamide] as the compound, how does the IC50 read?
Its IC50 is 9.66 ± 1.59 µM.

Which IC50 does the source give for N#Cc1cccc(/C=C2/C(=O)Nc3ccc(Cl)cc32)c1 [Compound 2-13, (E) 3-(5-Chloro-2-oxo-1,2-dihydro-indol-3-ylidenemethyl)-benzonitrile] here?
The IC50 was 10.4 ± 1.99 µM.

Which IC50 does the source give for CNS(=O)(=O)c1cccc(/C=C2/C(=O)Nc3ccc(Cl)cc32)c1 [Compound 2-14, (E)-3-(5-Chloro-2-oxo-1,2-dihydro-indol-3-ylidenemethyl)-N-methyl-benzenesulphonamide] here?
The IC50 was 3.13 ± 0.07 µM.

With O=C1Nc2cc(F)ccc2/C1=C\c1cccc(F)c1 [Compound 3-3, (E)-6-Fluoro-3-(3-fluoro-benzylidene)-1,3-dihydro-indol-2-one] as the compound, how does the IC50 read?
Its IC50 is 2.41 ± 1.07 µM.

With O=C1Nc2cc(F)ccc2/C1=C\c1ccccc1C(F)(F)F [Compound 3-5, (E)-6-Fluoro-3-(2-trifluoromethyl-benzylidene)-1,3-dihydro-indol-2-one] as the compound, how does the IC50 read?
Its IC50 is > 30 µM.

With O=C1Nc2cc(F)ccc2/C1=C\c1cccc(C(F)(F)F)c1 [Compound 3-6, (E)-6-Fluoro-3-(3-trifluoromethyl-benzylidene)-1,3-dihydro-indol-2-one, reference compound] as the compound, how does the IC50 read?
Its IC50 is 1.41 ± 0.13 µM.

With O=C1Nc2cc(F)ccc2/C1=C\c1ccc(C(F)(F)F)cc1 [Compound 3-7, (E)-6-Fluoro-3-(4-trifluoromethyl-benzylidene)-1,3-dihydro-indol-2-one] as the compound, how does the IC50 read?
Its IC50 is 8.42 ± 0.27 µM.

With O=C1Nc2cc(F)ccc2/C1=C\c1cccc(OC(F)(F)F)c1 [Compound 3-8, (E)-6-Fluoro-3-(3-trifluoromethoxyl-benzylidene)-1,3-dihydro-indol-2-one] as the compound, how does the IC50 read?
Its IC50 is 7.48 ± 0.2 µM.

CS(=O)(=O)c1cccc(/C=C2/C(=O)Nc3cc(F)ccc32)c1 [Compound 3-9, (E)-6-Fluoro-3-(3-methanesulfonyl-benzylidene)-1,3-dihydro-indol-2-one] was tested. Which IC50 did it give?
The IC50 was 12.7 ± 1.54 µM.

With O=C1Nc2ccc(F)cc2/C1=C\c1ccccc1 [Compound 4-1, (E)-3-Benzylidene-5-fluoro-1,3-dihydro-indol-2-one] as the compound, how does the IC50 read?
The IC50 was 21.4 ± 1.73 µM.
